Measurements published in patent US11878986B2, “Poly heterocyclic conjugates and their pharmaceutical uses” (National Health Research Institutes, priority 2020, dated 2024).

System: human pancreatic cancer cells (MIA PaCa-2)
Assay: Tumor growth inhibition in subcutaneous xenograft model, MIA PaCa-2
Assay type: in vivo, mouse
Details: s.c. xenograft in athymic nude mice; i.v. 1-5 mg/kg, once/week or twice/week for 1-3 weeks; vs vehicle control, p<0.05; FIG. 1
Description: The efficacy of compounds 2 and 11 in inhibiting the growth of human pancreatic cancer cells (MIA PaCa-2) and the efficacy of compounds 1-4, 23, 25, and 26 in inhibiting the growth of human triple-negative breast cancer cells (HCC1806) were assessed as follows.
Male and female athymic NU-Fox1^nu nude mice (BioLASCO, Taiwan) at age 4-5 weeks were housed in sterilized cages equipped with an air filter and sterile bedding materials at the Laboratory Animal Center of the National Health Research Institutes (NHRI), which is an AAALAC International accredited facility. All the mice were fed with sterilized water and chow ad libitum under 12-hr light/12-hr dark cycle throughout the study. […]
The MIA PaCa-2 and HCC1806 cells were suspended in phenol-red-free culture medium/Matrigel™ (1/1) and implanted subcutaneously (s.c.) into the left flank of the nude mice (1×10^6 cells/flank) via a 1 mL syringe. Tumor dimensions were measured twice a week using a digital caliper and the tumor volume (mm^3) was calculated based on the formula, i.e., volume=(length×width^2)/2.
Tumor-bearing mice were randomized (n=7-8 per group) when the average tumor volume reached approximately 200 mm^3. […] Tumor size and body weight of each animal were measured twice a week. Data was expressed as the mean or mean±standard error of the mean (SEM). […]

Compound	inhibition of the growth of MIA PaCa-2 (tumor volume)
CCCCCC(=O)Nc1cccc(CN(Cc2cc(CN(Cc3ccccn3)Cc3cccc(NC(=O)CCCCC)n3)cc(OCCCCN(Cc3ccc(-c4ccccc4)cc3)C(=O)COCCOCCOCC(=O)NCc3ccc(CNC(=O)CCSSCCC(=O)N(C)[C@H](C)C(=O)O[C@@H]4CC(=O)N(C)c5cc(cc(OC)c5Cl)C/C(C)=C/C=C/[C@H](OC)[C@]5(O)C[C@@H](OC(=O)N5)[C@H](C)[C@H]5O[C@]54C)cc3)c2)Cc2ccccn2)n1 [Compound 2]	significantly inhibited the growth
CCCCCC(=O)Nc1cccc(CN(Cc2cc(CN(Cc3ccccn3)Cc3cccc(NC(=O)CCCCC)n3)cc(OCCCCNC(=O)COCCOCCOCC(=O)NCc3ccc(CNC(=O)CCSSCCC(=O)N(C)[C@H](C)C(=O)O[C@@H]4CC(=O)N(C)c5cc(cc(OC)c5Cl)C/C(C)=C/C=C/[C@H](OC)[C@]5(O)C[C@H](OC(=O)N5)[C@H](C)C5O[C@@]54C)cc3)c2)Cc2ccccn2)n1 (some centres unmarked) [Compound 11]	significantly inhibited the growth
